Data as given in ChEMBL document CHEMBL3217447, “Biosynthetic gene cluster and antimicrobial activity of the elfamycin antibiotic factumycin” (2012).
Values after ≈ are worked out from the molar mass of the structure shown.

Legend:
Assay type in all cases: functional
Acinetobacter baumannii [1] = assay: Antibacterial activity against Acinetobacter baumannii mrH3 assessed as growth inhibition
Pseudomonas aeruginosa [2] = assay: Antibacterial activity against Pseudomonas aeruginosa GDW790 assessed as growth inhibition
Klebsiella pneumoniae [3] = assay: Antibacterial activity against Klebsiella pneumoniae GDW917 assessed as growth inhibition
Staphylococcus aureus [4] = assay: Antibacterial activity against Staphylococcus aureus ATCC 29213 assessed as growth inhibition
Acinetobacter baumannii [5] = assay: Antibacterial activity against Acinetobacter baumannii B00919434 assessed as growth inhibition
Acinetobacter baumannii [6] = assay: Antibacterial activity against Acinetobacter baumannii mrH4 by microdilution checkerboard method in presence of tetracycline
Escherichia coli [7] = assay: Antibacterial activity against Escherichia coli ATCC 25922 assessed as growth inhibition
Klebsiella pneumoniae [8] = assay: Antibacterial activity against Klebsiella pneumoniae by microdilution checkerboard method in presence of tetracycline
Enterococcus faecalis [9] = assay: Antibacterial activity against Enterococcus faecalis ATCC 29212 by microdilution checkerboard method in presence of tetracycline
Pseudomonas aeruginosa [10] = assay: Antibacterial activity against Pseudomonas aeruginosa GDW787 assessed as growth inhibition
Pseudomonas aeruginosa [11] = assay: Antibacterial activity against Pseudomonas aeruginosa PAO1 assessed as growth inhibition
Acinetobacter baumannii [12] = assay: Antibacterial activity against Acinetobacter baumannii GDW787 assessed as growth inhibition
Enterococcus faecalis [13] = assay: Antibacterial activity against Enterococcus faecalis ATCC 29212 assessed as growth inhibition
Pseudomonas aeruginosa [14] = assay: Antibacterial activity against Pseudomonas aeruginosa PAO1 by microdilution checkerboard method in presence of tetracycline
Acinetobacter baumannii [15] = assay: Antibacterial activity against Acinetobacter baumannii mrH4 assessed as growth inhibition
Enterococcus faecalis [16] = assay: Antibacterial activity against Enterococcus faecalis ATCC 51299 assessed as growth inhibition
Staphylococcus aureus [17] = assay: Antibacterial activity against Staphylococcus aureus CMRSA5 assessed as growth inhibition
Staphylococcus aureus [18] = assay: Antibacterial activity against Staphylococcus aureus CMRSA6 assessed as growth inhibition
Escherichia coli [19] = assay: Antibacterial activity against Escherichia coli GDW918 assessed as growth inhibition
Escherichia coli [20] = assay: Antibacterial activity against Escherichia coli GDW916 assessed as growth inhibition
Escherichia coli [21] = assay: Antibacterial activity against Escherichia coli […] by microdilution checkerboard method in presence of tetracycline
Escherichia coli [22] = assay: Antibacterial activity against Escherichia coli GDW914 assessed as growth inhibition
Pseudomonas aeruginosa [23] = assay: Antibacterial activity against Pseudomonas aeruginosa GDW788 assessed as growth inhibition
Staphylococcus aureus [24] = assay: Antibacterial activity against Staphylococcus aureus CMRSA7 assessed as growth inhibition
Pseudomonas aeruginosa [25] = assay: Antibacterial activity against Pseudomonas aeruginosa GDW789 assessed as growth inhibition
Staphylococcus aureus [26] = assay: Antibacterial activity against Staphylococcus aureus ATCC 29213 by microdilution checkerboard method in presence of tetracycline
Klebsiella pneumoniae [27] = assay: Antibacterial activity against Klebsiella pneumoniae GDW915 assessed as growth inhibition
Acinetobacter baumannii [28] = assay: Antibacterial activity against Acinetobacter baumannii ATCC 17978 assessed as growth inhibition
Acinetobacter baumannii [29] = assay: Antibacterial activity against Acinetobacter baumannii ATCC 17978 by microdilution checkerboard method in presence of tetracycline
Acinetobacter baumannii [30] = assay: Antibacterial activity against Acinetobacter baumannii mrH5 assessed as growth inhibition
Acinetobacter baumannii [31] = assay: Antibacterial activity against Acinetobacter baumannii B00636584 assessed as growth inhibition
Acinetobacter baumannii [32] = assay: Antibacterial activity against Acinetobacter baumannii GDW786 assessed as growth inhibition

MIC (Acinetobacter baumannii [1]): 16 µg/mL (≈ 20.5 µM)
MIC (Pseudomonas aeruginosa [2]): 128 µg/mL (≈ 164 µM)
MIC (Klebsiella pneumoniae [3]): 128 µg/mL (≈ 164 µM)
MIC (Staphylococcus aureus [4]): 32 µg/mL (≈ 41.1 µM)
MIC (Acinetobacter baumannii [5]): 8 µg/mL (≈ 10.3 µM)
MIC (Escherichia coli [7]): 64 µg/mL (≈ 82.2 µM)
MIC (Pseudomonas aeruginosa [10]): 128 µg/mL (≈ 164 µM)
MIC (Pseudomonas aeruginosa [11]): 128 µg/mL (≈ 164 µM)
MIC (Acinetobacter baumannii [12]): 128 µg/mL (≈ 164 µM)
MIC (Enterococcus faecalis [13]): 16 µg/mL (≈ 20.5 µM)
MIC (Acinetobacter baumannii [15]): 8 µg/mL (≈ 10.3 µM)
MIC (Enterococcus faecalis [16]): 64 µg/mL (≈ 82.2 µM)
MIC (Staphylococcus aureus [17]): > 128 µg/mL
MIC (Staphylococcus aureus [18]): > 128 µg/mL
MIC (Escherichia coli [19]): 128 µg/mL (≈ 164 µM)
MIC (Escherichia coli [20]): 128 µg/mL (≈ 164 µM)
MIC (Escherichia coli [22]): 128 µg/mL (≈ 164 µM)
MIC (Pseudomonas aeruginosa [23]): 128 µg/mL (≈ 164 µM)
MIC (Staphylococcus aureus [24]): > 128 µg/mL
MIC (Pseudomonas aeruginosa [25]): > 128 µg/mL
MIC (Klebsiella pneumoniae [27]): > 128 µg/mL
MIC (Acinetobacter baumannii [28]): 32 µg/mL (≈ 41.1 µM)
MIC (Acinetobacter baumannii [30]): 8 µg/mL (≈ 10.3 µM)
MIC (Acinetobacter baumannii [31]): 16 µg/mL (≈ 20.5 µM)
MIC (Acinetobacter baumannii [32]): 128 µg/mL (≈ 164 µM)
Structure (SMILES): C/C=C\C=C\[C@@H]1O[C@](O)([C@H](CC)C(=O)NC/C=C/C=C(\C)[C@@H](OC)[C@@H](C)C(O)[C@@H](O)/C=C/C=C/C=C/C=C(\C)C(=O)c2c(O)ccn(C)c2=O)C[C@H](O)C1(C)C (some centres not stated)
fractional inhibitory concentration index (FICI) (Acinetobacter baumannii [6]): 0.25
fractional inhibitory concentration index (FICI) (Klebsiella pneumoniae [8]): 0.5
fractional inhibitory concentration index (FICI) (Enterococcus faecalis [9]): 0.375
fractional inhibitory concentration index (FICI) (Pseudomonas aeruginosa [14]): 2
fractional inhibitory concentration index (FICI) (Escherichia coli [21]): 2
fractional inhibitory concentration index (FICI) (Staphylococcus aureus [26]): 2
fractional inhibitory concentration index (FICI) (Acinetobacter baumannii [29]): 2
